This assay addresses T1, human TRPM8 (Homo sapiens, UniProt Q7Z2W7).
T1 construct: expressed in transfected cells
Description: In Vitro human TRPM8 Functional Assay (intracellular Ca2+, Fluo4, FDSS, menthol activation). Format: cell-based. Particulars: HEK293 cells stably expressing human TRPM8; activation with L-(-)-Menthol; 11-point dose-response. Here is the method: In Vitro human TRPM8 Functional Assay
The functional activity of compounds was determined by measuring changes in intracellular calcium concentration using a Ca^2+-sensitive fluorescent dye, Fluo4 (Molecular Probes). The changes in fluorescent signal were monitored by the cell imaging technology by Hamamatsu Photonics's Functional Drug Screening System (FDSS).
HEK293 cells stably expressing human TRPM8 were grown in T175 flasks, in a 5% CO2 humidified incubator to about 80% confluence. Media composition consisted of Dulbecco's Modified Eagle Medium (high glucose), 10% fetal calf serum (FCS), 100 units/ml Penicillin, 100 microg/ml Streptomycin and 600 microg/ml Geneticine.
1. Plate-out HEK293-TRPM8 cells (40 microL medium containing 30,000 cells per well) into poly-D-lysine coated 384-well plates (BD FALCON) at 24 hours prior to assay.
1. […] 2. […] 3. Place the plate at room temperature in dark for 1 hour. 4. […] 5. Add 20 microL of compound solutions into each well and leave the plate for 5 minutes under the dark at room temperature. 6. Measure activity by FDSS as follows: • Set the assay plate on the stacker of FDSS • Start the detection of fluorescence intensity • After 30 sec, add 20 microL of 90 microM L-(−)-Menthol
IC50 values for compounds of the present invention were determined from 11-point dose-response studies. Curves were generated using the average of duplicate wells for each data point. Finally, the IC50 values are calculated with the best-fit dose curve determined by XLfit (ID Business Solutions Ltd.).

T1 sequence (Q7Z2W7 whole entry): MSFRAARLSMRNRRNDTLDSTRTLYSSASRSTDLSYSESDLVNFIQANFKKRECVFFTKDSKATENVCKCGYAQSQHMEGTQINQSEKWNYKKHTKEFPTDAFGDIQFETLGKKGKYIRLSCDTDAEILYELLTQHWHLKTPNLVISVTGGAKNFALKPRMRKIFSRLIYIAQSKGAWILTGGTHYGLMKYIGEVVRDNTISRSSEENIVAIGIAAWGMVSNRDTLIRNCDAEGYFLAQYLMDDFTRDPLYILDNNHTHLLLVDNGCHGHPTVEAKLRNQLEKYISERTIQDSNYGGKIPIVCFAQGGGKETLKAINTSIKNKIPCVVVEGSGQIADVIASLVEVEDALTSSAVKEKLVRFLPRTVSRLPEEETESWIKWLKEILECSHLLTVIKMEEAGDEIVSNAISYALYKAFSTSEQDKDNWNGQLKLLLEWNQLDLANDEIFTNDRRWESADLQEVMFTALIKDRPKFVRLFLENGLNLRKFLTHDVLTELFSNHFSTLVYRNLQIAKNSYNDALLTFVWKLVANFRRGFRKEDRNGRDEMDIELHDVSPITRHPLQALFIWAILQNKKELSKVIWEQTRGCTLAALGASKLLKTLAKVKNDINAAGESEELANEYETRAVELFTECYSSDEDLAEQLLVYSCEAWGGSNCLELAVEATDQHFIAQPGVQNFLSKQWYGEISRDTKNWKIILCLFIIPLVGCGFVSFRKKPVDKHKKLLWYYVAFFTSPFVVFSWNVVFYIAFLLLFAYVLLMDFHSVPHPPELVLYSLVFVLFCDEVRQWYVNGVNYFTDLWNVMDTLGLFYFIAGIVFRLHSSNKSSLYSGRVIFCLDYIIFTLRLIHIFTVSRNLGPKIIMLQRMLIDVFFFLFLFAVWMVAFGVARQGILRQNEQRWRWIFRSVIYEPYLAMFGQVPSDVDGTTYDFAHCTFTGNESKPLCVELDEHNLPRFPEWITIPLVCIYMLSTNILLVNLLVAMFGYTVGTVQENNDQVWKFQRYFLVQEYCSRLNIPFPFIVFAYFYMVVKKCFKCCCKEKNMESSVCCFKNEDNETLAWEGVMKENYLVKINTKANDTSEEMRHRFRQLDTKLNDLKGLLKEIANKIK

A word on the IC50: it is the concentration that gives 50% inhibition. Read a low IC50 as greater potency in that assay. `O=C(O)c1ccc(S(=O)(=O)N(Cc2ccccc2)c2ncc(C(F)(F)F)cc2Cl)cc1` [Example 1, 4-(N-Benzyl-N-(3-chloro-5-(trifluoromethyl)pyridin-2-yl)sulfamoyl)benzoic acid] came in with an IC50 of under 1000 nM. In turn, `O=C(O)c1ccc(S(=O)(=O)N(Cc2ccccc2)c2ncccc2C(F)(F)F)cc1` [Example 2, 4-(N-Benzyl-N-(3-(trifluoromethyl)pyridin-2-yl)sulfamoyl)benzoic acid] showed an IC50 of 10000 to 30000 nM.

Take `O=S(=O)(Nc1cccc(C(F)(F)F)c1)c1ccccc1` [Example 4, N-(3-(Trifluoromethyl)phenyl)benzenesulfonamide]: the IC50 was in the range of 10000 to 30000 nM. The molecule `CN1CCN(C(=O)CN(c2cccc(C(F)(F)F)c2)S(=O)(=O)c2ccccc2)CC1` [Example 5, N-(2-(4-Methylpiperazin-1-yl)-2-oxoethyl)-N-(3-(trifluoromethyl)phenyl)benzenesulfonamide] returned an IC50 of under 1000 nM.

`O=C(CN(c1cccc(C(F)(F)F)c1)S(=O)(=O)c1ccccc1)N1CCCCC1` [Example 6, N-(2-oxo-2-(piperidin-1-yl)ethyl)-N-(3-(trifluoromethyl)phenyl)benzenesulfonamide] showed an IC50 of 10000 to 30000 nM.

For `O=C(CN(c1cccc(C(F)(F)F)c1)S(=O)(=O)c1ccccc1)NCc1ccccc1` [Example 7, N-Benzyl-2-(N-(3-(trifluoromethyl)phenyl)benzenesulfonamido)acetamide], the IC50 is 10000 to 30000 nM. Next, `O=C(CN(c1cccc(C(F)(F)F)c1)S(=O)(=O)c1ccccc1)Nc1ccccc1` [Example 8, N-Phenyl-2-(N-(3-(trifluoromethyl)phenyl)benzenesulfonamido)acetamide]: 1000 to 10000 nM; `O=S(=O)(c1ccc(CO)cc1)N(Cc1ccccc1)c1ncc(C(F)(F)F)cc1Cl` [Example 9, N-Benzyl-N-(3-chloro-5-(trifluoromethyl)pyridin-2-yl)-4-(hydroxymethyl)benzene-1-sulfonamide]: under 1000 nM; `CN(C)C(=O)c1ccc(S(=O)(=O)N(Cc2ccccc2)c2ncc(C(F)(F)F)cc2Cl)cc1` [Example 12, 4-(Benzyl(3-chloro-5-(trifluoromethyl)pyridin-2-yl)sulfamoyl)-N,N-dimethylbenzamide]: under 1000 nM. Next, `O=C(O)c1ccc(S(=O)(=O)N(Cc2ccc(OC(F)(F)F)cc2)c2ncc(C(F)(F)F)cc2Cl)cc1` [Example 15, 4-(N-(3-Chloro-5-(trifluoromethyl)pyridin-2-yl)-N-(4-(trifluoromethoxy)benzyl)sulfamoyl)benzoic acid]: under 1000 nM; `COc1ccc(CN(c2ncc(C(F)(F)F)cc2Cl)S(=O)(=O)c2ccc(C(=O)O)cc2)cc1` [Example 16, 4-(N-(3-Chloro-5-(trifluoromethyl)pyridin-2-yl)-N-(4-methoxybenzyl)sulfamoyl)benzoic acid]: under 1000 nM. The same measure for `O=C(O)c1ccc(S(=O)(=O)N(CCC2CCCCC2)c2ncc(C(F)(F)F)cc2Cl)cc1` [Example 19, 4-(N-(3-Chloro-5-(trifluoromethyl)pyridin-2-yl)-N-(2-cyclohexylethyl)sulfamoyl)benzoic acid]: under 1000 nM; for `O=C(O)c1ccc(S(=O)(=O)N(Cc2ccccc2F)c2ncc(C(F)(F)F)cc2Cl)cc1` [Example 20, 4-(N-(3-Chloro-5-(trifluoromethyl)pyridin-2-yl)-N-(2-fluorobenzyl)sulfamoyl)benzoic acid]: under 1000 nM. Consider `O=C(O)c1ccc(S(=O)(=O)N(Cc2ccccc2)c2cc(C(F)(F)F)ccn2)cc1` [Example 21, 4-(N-Benzyl-N-(4-(trifluoromethyl)pyridin-2-yl)sulfamoyl)benzoic acid], for which the IC50 was 1000 to 10000 nM. Next, `O=C(O)c1ccc(S(=O)(=O)N(Cc2ccccc2)c2cccc(C(F)(F)F)n2)cc1` [Example 22, 4-(N-Benzyl-N-(6-(trifluoromethyl)pyridin-2-yl)sulfamoyl)benzoic acid]: 1000 to 10000 nM; `O=C(O)c1ccc(S(=O)(=O)N(Cc2cccc(C(F)(F)F)c2)c2ncc(C(F)(F)F)cc2Cl)cc1` [Example 23, 4-(N-(3-Chloro-5-(trifluoromethyl)pyridin-2-yl)-N-(3-(trifluoromethyl)benzyl)sulfamoyl)benzoic acid]: under 1000 nM.

`COc1cccc(CN(c2ncc(C(F)(F)F)cc2Cl)S(=O)(=O)c2ccc(C(=O)O)cc2)c1` [Example 24, 4-(N-(3-Chloro-5-(trifluoromethyl)pyridin-2-yl)-N-(3-methoxybenzyl)sulfamoyl)benzoic acid] came in with an IC50 of under 1000 nM. Molecule `O=C(O)c1ccc(S(=O)(=O)N(Cc2ccc(F)cc2F)c2ncc(C(F)(F)F)cc2Cl)cc1` [Example 26, 4-(N-(3-Chloro-5-(trifluoromethyl)pyridin-2-yl)-N-(2,4-difluorobenzyl)sulfamoyl)benzoic acid] displayed an IC50 of under 1000 nM.

For `Cc1ccc(CN(c2ncc(C(F)(F)F)cc2Cl)S(=O)(=O)c2ccc(C(=O)O)cc2)cc1` [Example 27, 4-(N-(3-Chloro-5-(trifluoromethyl)pyridin-2-yl)-N-(4-methylbenzyl)sulfamoyl)benzoic acid], the IC50 is under 1000 nM.

The molecule `CC(C)c1ccc(CN(c2ncc(C(F)(F)F)cc2Cl)S(=O)(=O)c2ccc(C(=O)O)cc2)cc1` [Example 28, 4-(N-(3-Chloro-5-(trifluoromethyl)pyridin-2-yl)-N-(4-isopropylbenzyl)sulfamoyl)benzoic acid] displayed an IC50 of under 1000 nM. Next, `O=C(O)c1ccc(S(=O)(=O)N(CC2CC2)c2ncc(C(F)(F)F)cc2Cl)cc1` [Example 29, 4-(N-(3-Chloro-5-(trifluoromethyl)pyridin-2-yl)-N-(cyclopropylmethyl)sulfamoyl)benzoic acid]: 1000 to 10000 nM; `O=C(O)c1ccc(S(=O)(=O)N(CCOc2ccc(F)cc2)c2ncc(C(F)(F)F)cc2Cl)cc1` [Example 30, 4-(N-(3-Chloro-5-(trifluoromethyl)pyridin-2-yl)-N-(2-(4-fluorophenoxy)ethyl)sulfamoyl)benzoic acid]: under 1000 nM. The same measure for `O=C(O)c1ccc(S(=O)(=O)N(Cc2ccc(Cl)cc2)c2ncc(C(F)(F)F)cc2Cl)cc1` [Example 32, 4-(N-(3-Chloro-5-(trifluoromethyl)pyridin-2-yl)-N-(4-chlorobenzyl)sulfamoyl)benzoic acid]: under 1000 nM. Next, `N#Cc1ccc(CN(c2ncc(C(F)(F)F)cc2Cl)S(=O)(=O)c2ccc(C(=O)O)cc2)cc1` [Example 33, 4-(N-(3-Chloro-5-(trifluoromethyl)pyridin-2-yl)-N-(4-cyanobenzyl)sulfamoyl)benzoic acid]: under 1000 nM. For `Cc1cccnc1N(Cc1ccccc1)S(=O)(=O)c1ccc(C(=O)O)cc1` [Example 34, 4-(N-Benzyl-N-(3-methylpyridin-2-yl)sulfamoyl)benzoic acid], the IC50 is 1000 to 10000 nM. The molecule `O=C(O)c1ccc(S(=O)(=O)N(Cc2ccccc2)c2ncccc2Cl)cc1` [Example 37, 4-(N-Benzyl-N-(3-chloropyridin-2-yl)sulfamoyl)benzoic acid] yielded an IC50 of 1000 to 10000 nM. The same measure for `Cc1cc(Cl)cnc1N(Cc1ccccc1)S(=O)(=O)c1ccc(C(=O)O)cc1` [Example 38, 4-(N-Benzyl-N-(5-chloro-3-methylpyridin-2-yl)sulfamoyl)benzoic acid]: under 1000 nM. The same measure for `O=C(O)c1ccc(S(=O)(=O)N(Cc2ccc(F)cc2Cl)c2ncc(C(F)(F)F)cc2Cl)cc1` [Example 40, 4-(N-(2-Chloro-4-fluorobenzyl)-N-(3-chloro-5-(trifluoromethyl)pyridin-2-yl)sulfamoyl)benzoic acid]: under 1000 nM; for `O=C(O)c1ccc(S(=O)(=O)N(Cc2ccc(OCC(F)(F)F)cc2)c2ncc(C(F)(F)F)cc2Cl)cc1` [Example 41]: under 1000 nM; for `O=C(O)c1ccc(S(=O)(=O)N(Cc2cc(F)cc(F)c2)c2ncc(C(F)(F)F)cc2Cl)cc1` [Example 42, 4-(N-(3-Chloro-5-(trifluoromethyl)pyridin-2-yl)-N-(3,5-difluorobenzyl)sulfamoyl)benzoic acid]: under 1000 nM. The same measure for `O=C(O)c1ccc(S(=O)(=O)N(Cc2c(F)cccc2F)c2ncc(C(F)(F)F)cc2Cl)cc1` [Example 44, 4-(N-(3-Chloro-5-(trifluoromethyl)pyridin-2-yl)-N-(2,6-difluorobenzyl)sulfamoyl)benzoic acid]: under 1000 nM. Molecule `O=C(O)c1ccc(S(=O)(=O)N(Cc2ccc(F)c(F)c2)c2ncc(C(F)(F)F)cc2Cl)cc1` [Example 45, 4-(N-(3-Chloro-5-(trifluoromethyl)pyridin-2-yl)-N-(3,4-difluorobenzyl)sulfamoyl)benzoic acid] displayed an IC50 of under 1000 nM. The same measure for `O=C(O)c1ccc(S(=O)(=O)N(Cc2cc(F)ccc2F)c2ncc(C(F)(F)F)cc2Cl)cc1` [Example 46, 4-(N-(3-Chloro-5-(trifluoromethyl)pyridin-2-yl)-N-(2,5-difluorobenzyl)sulfamoyl)benzoic acid]: under 1000 nM; for `O=C(O)c1ccc(S(=O)(=O)N(Cc2ccc(Cl)c(Cl)c2)c2ncc(C(F)(F)F)cc2Cl)cc1` [Example 47, 4-(N-(3-Chloro-5-(trifluoromethyl)pyridin-2-yl)-N-(3,4-dichlorobenzyl)sulfamoyl)benzoic acid]: under 1000 nM.

Values taken from US20120094964A1, “SULFAMOYL BENZOIC ACID DERIVATIVES AS TRPM8 ANTAGONISTS” (priority 2009, published 2012).
